Laboratory results taken from patent publication US10478464B2, “Compositions and methods of use” (priority 2009, dated 2019).

Tests used:
[1] = test system: HOP-92 lung cancer cell lines; experiment: Cell survival, colorimetric MTT assay, HOP-92; assay type: cell-based, human; details: 72 hours; for reduced the survival of HOP92 cell lines by: 100 μM
Experimental: 1) Against the lung cancer cell lines: The effect of the racemic mixture of 8-HHA and that of the individual enantiomers, namely S and R enantiomers, were examined on the survival of HOP-92 lung cancer cell lines. The cell viability was examined in the exponential growth phase with 100 μM of 8-HHA for 72 hours using colorimetric MTT assay. In separate assays, HOP-92 cells were treated with different concentrations of the S-enantiomer of 8-HHA ranging from 20-100 μM for 72 hours.

[2] = test system: PLC/PRF/5 liver cancer cell line; experiment: Cell survival, colorimetric MTT assay, PLC/PRF/5; assay type: cell-based; details: 72 hours
Experimental: (§1) 2) Against the liver cancer cell lines: The effect of the racemic mixture of 8-HHA and that of the individual enantiomers, namely S and R enantiomers, were examined on survival of PLC/PRF/5 (also referred to as “PLC-5” or “PLC5”), Hep3B and SNU449 (also referred to as “SNU”) liver cancer cell lines. The cell viability was examined in the exponential growth phase with 100 μM of 8-HHA for 72 hours using colorimetric MTT assay. In separate assays, PLC-5 cells were treated with different concentrations of S-enantiomer of 8-HHA ranging from 20-100 μM for 72 hours.

[3] = test system: Hep3B liver cancer cell line; experiment: Cell survival, colorimetric MTT assay, Hep3B; assay type: cell-based; details: 100 μM, 72 hours
Experimental: as §1

[4] = test system: SNU449 liver cancer cell line; experiment: Cell survival, colorimetric MTT assay, SNU449; assay type: cell-based; details: 100 μM, 72 hours
Experimental: as §1

[5] = test system: PARP; experiment: PARP cleavage in SNU liver cancer cells; assay type: cell-based; details: 100 μM
Description: (§2) PARP cleavage is considered a specific and well established marker of apoptosis. During apoptosis, FAS receptor undergoes down regulation, which is considered as an established indicator of apoptosis. Apoptosis can be induced by a pathway stimulated by FAS receptor binding to FAS ligand and is called extrinsic mechanism. Apoptosis by this pathway results in the reduction of FAS receptor.
(§3) 1) Against liver cancer cell lines: The effect of 8-HHA was examined on apoptosis in liver cancer cell lines.

[6] = test system: PARP; experiment: PARP cleavage in PLC-5 liver cancer cells; assay type: cell-based; details: PLC-5 cells, 100 μM
Description: as §2, §3

[7] = test system: FAS receptor; experiment: FAS receptor levels in PLC-5 cells; assay type: cell-based; details: 100 μM, 72 hours
Experimental: as §2
PLC-5 cell lines were treated with […] 100 μM for 72 hours.

[8] = test system: FAS receptor; experiment: FAS protein levels in HOP-92 cells; assay type: cell-based, human; details: HOP92 cells, 100 μM, 72 hours
Experimental: as §2
2) Against lung cancer cell lines: HOP-92 lung cancer cell lines were treated with 100 μM of (S)-8-HHA for 72 hours.

[9] = test system: Bim1; experiment: Pro-apoptotic Bim1 in HOP92 cells; assay type: cell-based, human; details: 100 μM, 72 hours
Experimental: Bim1 is a pro-apoptotic protein whose up regulation leads to apoptosis. HOP92 cell lines were treated with 100 μM of S-enantiomer of 8-HHA for 72 hours.

[10] = test system: HeLa cells; experiment: HeLa cell viability by Alamar Blue assay; assay type: cell-based; details: 24, 48 and 72 hrs
Description: Assessment of cell viability by alamar blue reduction method is routinely used for illustrating cytotoxic potential of candidate drugs. Alamar blue detects cell viability by utilizing a blue non-fluorescent dye resazurin, which is converted to a pink fluorescent dye, resorufin by cellular metabolic intermediates. The fluorescent signal generated from the assay is proportional to the number of living cells in the sample. Confluent HeLa cells (70-80%) grown in T-75 flasks were detached using trypsin-EDTA. Following centrifugation, the cells pellet was resuspended in DMEM medium and counted using a hemocytometer. Cells were seeded into 96 well plate at a density of 10,000 cells/100 μl/well and incubated at 37° C./5% CO2 for 8 hrs. Media was removed and test compounds were added in the volume of 100 μl. […] At the end of 24, 48 & 72 hrs treatment with test compound, fluorescence was measured at 530 excitation and 590 nm emissions using a micro plate reader. Viability expressed as % control was plotted against drug concentration.
The mean value of duplicate wells was calculated. […] The percentage of cell viability of test samples was calculated as:
[formula] IC50 values were determined by nonlinear regression analysis (curve fit) of percent viability data against drug concentration using the sigmoidal dose-response (variable) equation (Graph Pad Prism 4 software).

Row | SMILES | reduced the survival of HOP92 cell lines by [1] [%] | IC50 ([1]; Homo sapiens, HOP-92, 20-100 μM, read-out: 50% reduction in cell survival (IC50)) [µM] | reduced the survival of PLC-5 cell line by ([2]; 100 μM) [%] | IC50 ([2]; Homo sapiens, PLC-5, 20-100 μM, read-out: 50% reduction in cell survival (IC50)) [µM] | reduced the survival of Hep3B cell line by [3] [%] | effect on survival of SNU cell line [4] [%] | PARP cleavage [5] | PARP cleavage [6] | FAS receptor levels compared to the control [7] | FAS protein levels [8] | Bim1 increase compared to the control sample [9] [fold] | HeLa cell viability, result in words [10]
1 | CCCCCCCC[C@@H](O)CCCCCCC(=O)O [(R)-8-HHA, 8(R)-hydroxypalmitic acid] | 13 | – | – | – | – | – | – | – | – | – | – | –
2 | CCCCCCCC[C@H](O)CCCCCCC(=O)O [(S)-8-HHA, 8(S)-hydroxypalmitic acid] | 72 | ~90 | ~75 | ~50 | ~75 | ~75 | resulted in the PARP cleavage | resulted in the PARP cleavage | substantial reduction in FAS receptor levels | reduction of FAS protein levels | 2 | –
3 | CC(C)(C)c1ccc(C(O)CCCN2CCC(C(O)(c3ccccc3)c3ccccc3)CC2)cc1 (stereo not shown) [Terfenadine] | – | – | – | – | – | – | – | – | – | – | – | dose dependent inhibition
